Drawing on US9175011B2, “Morpholino substituted urea or carbamate derivatives as MTOR inhibitors” (CELLZOME LIMITED, priority 2011, dated 2015), this text covers IC50 for eleven compounds.

Test [1] concerns S6RP serine-240/244 phosphorylation. In words: In vitro phospho-S6 cellular assay (HEK293T/17). The test is classed as cell-based. Conditions: Homo sapiens; HEK293T/17 cells, 2 hours, pS6RP Ser240/244; read-out: Inhibition values (IC50) pS6. The procedure, abridged:
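HEK293T/17 cells in DMEM with 2% FCS were exposed to 8 compound concentrations (0.1% DMSO) for 2 h at 37 °C, then lysed. pS6RP Ser240/244 or pAkt Ser473 in the lysates was quantified by MSD sandwich electrochemiluminescence. IC50 was obtained by sigmoidal variable-slope nonlinear regression.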

The next test concerns the target T1, PI3K alpha (PI3Kα) (Homo sapiens, UniProt P42336).
T1 construct: Jurkat cells were homogenized in a Potter S homogenizer in lysis buffer; endogenous in cells; host or cells: Jurkat, clone E6-1 (ATCC TIB-152) lysate
In words: kinobeads assay, PI3K alpha. The test is classed as binding. Conditions: Jurkat cell lysate, read-out: Inhibition values (IC50) PI3Ka. The gist of the method: (§1)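 Jurkat cell lysate (5 mg/ml protein) competed for 3 h in the cold with compound (1:3 series, 9 steps, 5 mM top in DMSO) against immobilized phenylthiazole and phenylmorpholin-chromen bead matrix. Bead-bound kinase eluted and quantified by specific antibody dot blot with infrared detection; IC50 from dose-response curves.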

A further test has as its target T2, PI3K gamma (PI3Kg) (Homo sapiens, UniProt P48736).
T2 construct: Jurkat cells were homogenized in a Potter S homogenizer in lysis buffer; endogenous in cells; host or cells: Jurkat, clone E6-1 (ATCC TIB-152) lysate
Put plainly: kinobeads assay, PI3K gamma. The format is binding. Conditions: Jurkat cell lysate, read-out: Inhibition values (IC50) PI3Kg. The procedure, abridged:
as §1

In the next test the target is T3, PI3K beta (PI3Kb) (Homo sapiens, UniProt P42338).
T3 construct: Jurkat cells were homogenized in a Potter S homogenizer in lysis buffer; endogenous in cells; host or cells: Jurkat, clone E6-1 (ATCC TIB-152) lysate
T3 sequence (P42338 whole entry): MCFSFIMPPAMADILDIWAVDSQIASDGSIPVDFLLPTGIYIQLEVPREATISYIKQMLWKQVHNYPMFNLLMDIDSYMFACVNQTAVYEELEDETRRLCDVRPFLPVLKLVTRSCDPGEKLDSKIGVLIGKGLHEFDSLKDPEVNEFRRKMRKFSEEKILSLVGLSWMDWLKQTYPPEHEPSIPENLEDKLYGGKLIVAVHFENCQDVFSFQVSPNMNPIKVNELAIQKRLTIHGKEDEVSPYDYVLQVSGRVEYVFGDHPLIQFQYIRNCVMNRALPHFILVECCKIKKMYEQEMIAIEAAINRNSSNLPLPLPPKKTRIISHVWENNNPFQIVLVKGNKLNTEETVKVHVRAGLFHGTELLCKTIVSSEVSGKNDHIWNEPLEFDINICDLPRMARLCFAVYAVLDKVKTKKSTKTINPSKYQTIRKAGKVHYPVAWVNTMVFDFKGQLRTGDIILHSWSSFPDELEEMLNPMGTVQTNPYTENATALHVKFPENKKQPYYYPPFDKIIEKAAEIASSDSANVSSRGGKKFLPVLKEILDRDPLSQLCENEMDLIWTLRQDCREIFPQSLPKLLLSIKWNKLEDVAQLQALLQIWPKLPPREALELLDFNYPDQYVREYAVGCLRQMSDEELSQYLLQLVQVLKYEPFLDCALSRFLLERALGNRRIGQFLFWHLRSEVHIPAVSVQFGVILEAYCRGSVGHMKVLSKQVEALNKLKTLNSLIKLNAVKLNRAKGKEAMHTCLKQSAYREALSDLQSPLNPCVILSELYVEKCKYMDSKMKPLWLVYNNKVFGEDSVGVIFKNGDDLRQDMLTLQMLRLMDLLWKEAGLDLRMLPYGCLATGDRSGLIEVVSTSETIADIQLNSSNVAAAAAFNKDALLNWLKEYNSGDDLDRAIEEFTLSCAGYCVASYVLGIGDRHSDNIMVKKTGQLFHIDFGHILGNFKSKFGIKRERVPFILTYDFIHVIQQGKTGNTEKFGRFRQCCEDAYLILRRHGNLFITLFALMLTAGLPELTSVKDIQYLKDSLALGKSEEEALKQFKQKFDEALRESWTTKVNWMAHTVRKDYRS
T3 sequence (P27986 whole entry partner): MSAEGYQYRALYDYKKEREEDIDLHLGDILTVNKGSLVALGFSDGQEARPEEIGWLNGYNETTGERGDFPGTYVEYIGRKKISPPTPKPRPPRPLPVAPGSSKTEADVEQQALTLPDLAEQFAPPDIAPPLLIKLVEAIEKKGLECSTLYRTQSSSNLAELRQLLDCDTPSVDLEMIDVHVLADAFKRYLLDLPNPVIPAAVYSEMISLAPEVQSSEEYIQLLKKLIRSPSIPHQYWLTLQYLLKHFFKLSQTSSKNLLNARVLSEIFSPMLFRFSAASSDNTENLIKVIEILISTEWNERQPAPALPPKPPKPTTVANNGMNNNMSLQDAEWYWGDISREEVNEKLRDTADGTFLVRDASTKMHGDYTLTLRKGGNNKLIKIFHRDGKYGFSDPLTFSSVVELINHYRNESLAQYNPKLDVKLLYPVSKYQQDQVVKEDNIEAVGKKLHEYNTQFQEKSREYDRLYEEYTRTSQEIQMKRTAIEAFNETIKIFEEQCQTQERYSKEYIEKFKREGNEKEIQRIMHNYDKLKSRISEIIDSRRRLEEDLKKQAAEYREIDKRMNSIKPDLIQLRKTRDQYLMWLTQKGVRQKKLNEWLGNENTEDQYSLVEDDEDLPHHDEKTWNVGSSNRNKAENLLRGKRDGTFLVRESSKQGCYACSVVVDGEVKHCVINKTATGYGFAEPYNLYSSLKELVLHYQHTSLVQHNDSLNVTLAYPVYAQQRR
In words: kinobeads assay, PI3K beta. The test is classed as binding. The settings on record: Jurkat cell lysate, read-out: Inhibition values (IC50) PI3Kb. The gist of the method: as §1

For test [2], the target named is T4, DNA-dependent protein kinase (DNA-PK) (Homo sapiens, UniProt P78527).
T4 construct: Jurkat cells were homogenized in a Potter S homogenizer in lysis buffer; endogenous in cells; host or cells: Jurkat, clone E6-1 (ATCC TIB-152) lysate
Put plainly: kinobeads assay, DNA-PK. The format is binding. The settings on record: Jurkat cell lysate, read-out: Inhibition values (IC50) DNA-PK. The procedure, abridged:
as §1

The test system of test [3] is Akt serine-473 phosphorylation. In words: In vitro phospho-Akt cellular assay (HEK293T/17). The test is classed as cell-based. The settings on record: Homo sapiens; HEK293T/17 cells, 2 hours, pAkt Ser 473; read-out: Inhibition values (IC50) pAkt. An excerpt: Activation of mTOR signaling results in phosphorylation of several downstream targets. In cells, mTOR exists in two different protein complexes. The mTOR Complex-1 (mTORC1) phosphorylates and activates S6 Kinase 1 (S6K1) and S6 Kinase 2 (S6K2) (also known as p70S6K) which then phosphorylate S6 Ribosomal Protein (S6RP) (also known as RPS6)3. S6RP is phosphorylated on serine 235, senile 236, serine 240 and serine 244 by both pS6K1 and pS6K2. The mTOR Complex-2 (mTORC2) phosphorylates AKT on serine 473 which activates the AKT signaling pathway.
The assay measures a test compound's inhibition of S6RP serine-240/244 phosphorylation and inhibition of Akt serine-473 phosphorylation in human embryonic kidney derived HEK293T/17 cells (ATCC CRL-11268).
The HEK293T/17 cell line is maintained in DMEM media (Invitrogen catalogue number 41965-039) supplemented with 10% FCS at 37° C. in a 5% CO2 humidified incubator. Cells are seeded in 96-well plates at 40,000 cells/well (pS6RP S240/244 assay) or 80,000 cells/well (pAkt 5473 assay) in 90 μl growth media (DMEM, 2% FCS). Plates are incubated for 1 hour in a humidified incubator to allow the cells to adhere. Cells are treated with 8 concentrations of test compounds or DMSO alone for controls (final DMSO concentration 0.1%) and incubated at 37° C. for 2 hours. Then 20 μl of 5× concentrated lysis buffer (750 mM NaCl, 100 mM Tris pH7.4, 5 mM ADTA, 5 mM EGTA, 5% Triton X-100) is added, plates are sealed and incubated for 15 minutes at 4° C. with gentle shaking After cell lysis, 25 μl cell lysate is transferred to a MesoScale plate coated with an antibody to pS6RP Ser240/244 (MesoScale Discovery K150DGD-3) or an antibody to pAkt Ser 473 (MesoScale Discovery K151DGD-3). Plates have been blocked before by incubation with 150 μl MesoScale Discovery Blocking Solution-A for 1 hour at room temperature followed by washing with 150 μl 1×Tris wash buffer per well. After the transfer of the cell lysate to the MSD plate, the pS6RP (or pAkt) protein is captured on the coated antibody by incubation at room temperature for 1 hour with gentle shaking. After the capture step the plate is washed three times with 150 μl of 1× Tris wash buffer per well. Then 25 μl detection antibody conjugated with a Sulfo-Tag is added and incubated for 1 hour at room temperature with gentle shaking. Subsequently the antibody solution is removed and the plate is washed 3 times with 150 μl 1×Tris wash buffer per well and 150 μl Read buffer is added. The plates are analysed on a MSD 2400 Plate Reader (MesoScale Discovery). Data analysis is performed using nonlinear regression for a sigmoidal dose-response with a variable slope.

A further test addresses T5, mTOR (Homo sapiens, UniProt P42345).
T5 construct: Jurkat cells were homogenized in a Potter S homogenizer in lysis buffer; endogenous in cells; host or cells: Jurkat, clone E6-1 (ATCC TIB-152) lysate
In words: mTOR kinobeads assay (Jurkat cell lysate, dot blot detection). Conditions: read-out: Inhibition values (IC50) mTor. The test is classed as binding. The procedure, abridged: as §1

The target of another test is T6, PI3K delta (PI3Kd) (Homo sapiens, UniProt O00329).
T6 construct: Jurkat cells were homogenized in a Potter S homogenizer in lysis buffer; endogenous in cells; host or cells: Jurkat, clone E6-1 (ATCC TIB-152) lysate
T6 sequence (O00329 whole entry): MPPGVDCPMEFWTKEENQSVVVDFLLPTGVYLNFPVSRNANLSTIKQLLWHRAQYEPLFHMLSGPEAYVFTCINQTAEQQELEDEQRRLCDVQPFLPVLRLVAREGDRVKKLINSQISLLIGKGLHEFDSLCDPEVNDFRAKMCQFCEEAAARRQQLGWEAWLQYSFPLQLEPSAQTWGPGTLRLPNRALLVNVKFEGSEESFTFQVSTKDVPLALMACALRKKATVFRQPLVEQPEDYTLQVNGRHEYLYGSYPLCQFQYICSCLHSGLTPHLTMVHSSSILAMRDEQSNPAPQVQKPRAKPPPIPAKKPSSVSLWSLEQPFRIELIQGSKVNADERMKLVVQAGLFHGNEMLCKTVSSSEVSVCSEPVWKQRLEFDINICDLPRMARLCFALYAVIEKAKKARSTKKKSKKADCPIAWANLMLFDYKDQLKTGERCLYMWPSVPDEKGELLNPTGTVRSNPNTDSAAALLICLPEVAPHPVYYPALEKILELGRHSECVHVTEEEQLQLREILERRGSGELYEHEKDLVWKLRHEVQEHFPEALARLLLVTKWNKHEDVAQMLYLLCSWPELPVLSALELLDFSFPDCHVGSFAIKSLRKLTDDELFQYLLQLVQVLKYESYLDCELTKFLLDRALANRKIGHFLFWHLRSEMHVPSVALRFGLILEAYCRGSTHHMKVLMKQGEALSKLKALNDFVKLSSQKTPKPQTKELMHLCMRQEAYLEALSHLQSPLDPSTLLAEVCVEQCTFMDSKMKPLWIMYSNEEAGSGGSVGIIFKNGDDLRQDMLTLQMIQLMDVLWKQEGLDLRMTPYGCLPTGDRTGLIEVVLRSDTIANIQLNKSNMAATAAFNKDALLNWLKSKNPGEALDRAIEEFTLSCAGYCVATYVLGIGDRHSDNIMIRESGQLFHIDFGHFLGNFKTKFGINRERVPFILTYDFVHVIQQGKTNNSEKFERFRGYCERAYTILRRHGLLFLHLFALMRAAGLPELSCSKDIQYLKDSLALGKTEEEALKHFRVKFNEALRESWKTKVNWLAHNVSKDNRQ
T6 sequence (P27986 whole entry partner): as the sequence (P27986 whole entry partner) above
In words: kinobeads assay, PI3K delta. The test is classed as binding. Conditions: Jurkat cell lysate, read-out: Inhibition values (IC50) PI3Kd. The procedure, abridged: as §1

pIC50: −log10 of the molar value.

In general, pIC50 refers to −log10 of the IC50, conventionally taken in molar units.

T2 sequence (P48736 whole entry): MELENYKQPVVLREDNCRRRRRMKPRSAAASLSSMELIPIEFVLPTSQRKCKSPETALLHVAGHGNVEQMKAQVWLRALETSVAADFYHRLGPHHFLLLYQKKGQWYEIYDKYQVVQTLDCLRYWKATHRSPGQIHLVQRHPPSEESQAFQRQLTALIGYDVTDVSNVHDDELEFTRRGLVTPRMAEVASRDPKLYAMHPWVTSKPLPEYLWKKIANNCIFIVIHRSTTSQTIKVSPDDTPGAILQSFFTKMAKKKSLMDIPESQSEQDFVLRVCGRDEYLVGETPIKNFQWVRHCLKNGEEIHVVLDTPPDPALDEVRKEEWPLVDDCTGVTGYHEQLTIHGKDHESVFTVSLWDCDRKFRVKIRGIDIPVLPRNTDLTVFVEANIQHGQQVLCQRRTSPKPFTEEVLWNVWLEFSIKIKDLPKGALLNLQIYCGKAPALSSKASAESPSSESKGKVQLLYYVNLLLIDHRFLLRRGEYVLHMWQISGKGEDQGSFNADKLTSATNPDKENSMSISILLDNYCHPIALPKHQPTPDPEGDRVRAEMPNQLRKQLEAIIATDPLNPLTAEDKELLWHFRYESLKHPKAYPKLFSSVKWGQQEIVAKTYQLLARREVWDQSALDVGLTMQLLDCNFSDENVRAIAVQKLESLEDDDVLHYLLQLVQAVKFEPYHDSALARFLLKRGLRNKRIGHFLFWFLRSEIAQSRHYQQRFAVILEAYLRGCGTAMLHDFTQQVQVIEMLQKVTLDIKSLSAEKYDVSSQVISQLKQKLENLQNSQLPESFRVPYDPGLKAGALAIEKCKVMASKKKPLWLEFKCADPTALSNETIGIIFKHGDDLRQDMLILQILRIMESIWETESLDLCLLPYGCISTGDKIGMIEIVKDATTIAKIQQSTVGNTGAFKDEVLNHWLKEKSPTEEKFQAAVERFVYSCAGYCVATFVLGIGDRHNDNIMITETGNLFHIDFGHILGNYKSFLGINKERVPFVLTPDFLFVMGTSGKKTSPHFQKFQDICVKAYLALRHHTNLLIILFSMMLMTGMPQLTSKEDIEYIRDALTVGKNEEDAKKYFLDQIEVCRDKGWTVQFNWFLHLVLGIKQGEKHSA
T1 sequence (P42336 whole entry): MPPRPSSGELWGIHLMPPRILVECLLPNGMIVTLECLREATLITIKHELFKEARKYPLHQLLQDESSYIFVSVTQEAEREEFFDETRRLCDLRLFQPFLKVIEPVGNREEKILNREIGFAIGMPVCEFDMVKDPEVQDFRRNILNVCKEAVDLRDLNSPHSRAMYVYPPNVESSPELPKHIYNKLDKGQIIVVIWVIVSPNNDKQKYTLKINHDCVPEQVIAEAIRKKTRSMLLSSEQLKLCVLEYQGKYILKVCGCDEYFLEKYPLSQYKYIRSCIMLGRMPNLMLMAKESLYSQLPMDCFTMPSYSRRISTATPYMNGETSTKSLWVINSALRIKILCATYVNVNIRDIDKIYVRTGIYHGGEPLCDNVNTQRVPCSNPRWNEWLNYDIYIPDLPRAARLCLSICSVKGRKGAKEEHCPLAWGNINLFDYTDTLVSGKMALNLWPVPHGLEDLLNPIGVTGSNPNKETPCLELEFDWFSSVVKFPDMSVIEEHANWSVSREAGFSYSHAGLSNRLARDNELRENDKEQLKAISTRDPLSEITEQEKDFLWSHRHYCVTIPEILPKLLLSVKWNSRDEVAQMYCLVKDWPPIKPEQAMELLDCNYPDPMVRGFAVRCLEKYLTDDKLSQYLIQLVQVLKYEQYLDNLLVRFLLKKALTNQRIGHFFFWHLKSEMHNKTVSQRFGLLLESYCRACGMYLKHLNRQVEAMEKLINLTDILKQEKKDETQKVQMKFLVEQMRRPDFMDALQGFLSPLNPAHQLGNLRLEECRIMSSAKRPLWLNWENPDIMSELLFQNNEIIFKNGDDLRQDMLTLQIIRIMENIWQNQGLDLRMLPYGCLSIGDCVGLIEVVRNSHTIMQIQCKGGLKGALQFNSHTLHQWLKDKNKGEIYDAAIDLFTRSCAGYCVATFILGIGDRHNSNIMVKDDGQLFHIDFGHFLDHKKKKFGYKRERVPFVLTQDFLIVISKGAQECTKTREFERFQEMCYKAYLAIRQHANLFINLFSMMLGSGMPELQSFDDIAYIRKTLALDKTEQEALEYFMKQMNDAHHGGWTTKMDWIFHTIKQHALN
T1 sequence (P27986 whole entry partner): as the sequence (P27986 whole entry partner) above

Take `C[C@H]1COCCN1c1nc(-c2ccc(NC(=O)NC3CC3)cc2)nc(-c2ccccc2S(C)(=O)=O)n1` [Example 1, (S)-1-cyclopropyl-3-(4-(4-(3-methylmorpholino)-6-(2-(methylsulfonyl)phenyl)-1,3,5-triazin-2-yl)phenyl)urea]: the negative logarithm of the IC50 (pIC50) in test [1] was greater than 7.00; at PI3K alpha (PI3Kα), less than 5.00; at PI3K gamma (PI3Kg), less than 5.00; on PI3K beta (PI3Kb), less than 5.00; in test [2], less than 5.00; in test [3] it was greater than 7.00. Moreover, the pIC50 at mTOR is greater than 7.00; at PI3K delta (PI3Kd), less than 5.00.
For `C[C@H]1COCCN1c1nc(-c2ccc(NC(=O)NCCO)cc2)nc(-c2ccccc2S(C)(=O)=O)n1` [Example 4, (S)-1-(2-hydroxyethyl)-3-(4-(4-(3-methylmorpholino)-6-(2-(methylsulfonyl)phenyl)-1,3,5-triazin-2-yl)phenyl)urea], the pIC50 in test [1] is greater than 7.00; on PI3K alpha (PI3Kα), less than 5.00; on PI3K gamma (PI3Kg), less than 5.00; at PI3K beta (PI3Kb) it was less than 5.00; in test [2], less than 5.00; in test [3], greater than 7.00. The values for the pIC50 on mTOR and at PI3K delta (PI3Kd) were greater than 7.00 and less than 5.00, respectively.
As to `C[C@H]1COCCN1c1nc(-c2ccc(NC(=O)NC3CC3)cc2)nc(-c2cc(F)ccc2S(C)(=O)=O)n1` [Example 5, (S)-1-cyclopropyl-3-(4-(4-(5-fluoro-2-(methylsulfonyl)phenyl)-6-(3-methylmorpholino)-1,3,5-triazin-2-yl)phenyl)urea], the pIC50 was greater than 7.00 in test [1]; less than 5.00 on PI3K alpha (PI3Kα); less than 5.00 on PI3K gamma (PI3Kg); less than 5.00 on PI3K beta (PI3Kb); less than 5.00 in test [2]; greater than 7.00 in test [3]. The pIC50 was 6.00 to 7.00 at mTOR and less than 5.00 on PI3K delta (PI3Kd).
As to `C[C@H]1COCCN1c1nc(-c2ccc(NC(=O)NCCO)cc2)nc(-c2cc(F)ccc2S(C)(=O)=O)n1` [Example 6, (S)-1-(4-(4-(5-fluoro-2-(methylsulfonyl)phenyl)-6-(3-methylmorpholino)-1,3,5-triazin-2-yl)phenyl)-3-(2-hydroxyethyl)urea], the pIC50 was 6.00 to 7.00 in test [1]; less than 5.00 at PI3K alpha (PI3Kα); less than 5.00 on PI3K gamma (PI3Kg); less than 5.00 at PI3K beta (PI3Kb); less than 5.00 in test [2]; greater than 7.00 in test [3]. Further, the negative logarithm of the IC50 (pIC50) at mTOR was greater than 7.00; on PI3K delta (PI3Kd), less than 5.00.
As for `C[C@H]1COCCN1c1nc(-c2ccc(NC(=O)NCCF)cc2)nc(-c2ccccc2S(C)(=O)=O)n1` [Example 7, (S)-1-(2-fluoroethyl)-3-(4-(4-(3-methylmorpholino)-6-(2-(methylsulfonyl)phenyl)-1,3,5-triazin-2-yl)phenyl)urea], the pIC50 in test [1] is greater than 7.00; at PI3K alpha (PI3Kα) it was less than 5.00; at PI3K gamma (PI3Kg) it was less than 5.00; on PI3K beta (PI3Kb) it was less than 5.00; in test [2] it was less than 5.00; in test [3], greater than 7.00. The values for the pIC50 at mTOR and on PI3K delta (PI3Kd) were greater than 7.00 and less than 5.00, respectively.
As for `C[C@H]1COCCN1c1nc(-c2ccc(NC(=O)NCC(F)F)cc2)nc(-c2ccccc2S(C)(=O)=O)n1` [Example 8, (S)-1-(2,2-difluoroethyl)-3-(4-(4-(3-methylmorpholin)-6-(2-(methylsulfonyl)phenyl)-1,3,5-triazin-2-yl)phenyl)urea], the pIC50 was greater than 7.00 in test [1]; less than 5.00 at PI3K alpha (PI3Kα); less than 5.00 at PI3K gamma (PI3Kg); less than 5.00 at PI3K beta (PI3Kb); less than 5.00 in test [2]; greater than 7.00 in test [3]. For the same compound, the pIC50 on mTOR was greater than 7.00; on PI3K delta (PI3Kd), less than 5.00.
For `CCNC(=O)Nc1ccc(-c2nc(-c3ccccc3S(C)(=O)=O)nc(N3CCOC[C@@H]3C)n2)cc1` [Example 10, (S)-1-ethyl-3-(4-(4-(3-methylmorpholino)-6-(2-(methylsulfonyl)phenyl)-1,3,5-triazin-2-yl)phenyl)urea], the pIC50 in test [1] is greater than 7.00; on PI3K alpha (PI3Kα), less than 5.00; on PI3K gamma (PI3Kg) it was less than 5.00; on PI3K beta (PI3Kb), less than 5.00; in test [2], less than 5.00; in test [3], greater than 7.00. In addition, the results for the pIC50 at mTOR and on PI3K delta (PI3Kd) were greater than 7.00 and less than 5.00, respectively.
On to `CNC(=O)Nc1ccc(-c2nc(-c3ccccc3S(C)(=O)=O)nc(N3CCOC[C@@H]3C)n2)cc1` [Example 14, (S)-1-methyl-3-(4-(4-(3-methylmorpholino)-6-(2-(methylsulfonyl)phenyl)-1,3,5-triazin-2-yl)phenyl)urea], for which the pIC50 in test [1] was greater than 7.00; at PI3K alpha (PI3Kα) it was less than 5.00; at PI3K gamma (PI3Kg), less than 5.00; on PI3K beta (PI3Kb), less than 5.00; in test [2] it was less than 5.00; in test [3], greater than 7.00. Moreover, the pIC50 at mTOR was 6.00 to 7.00; at PI3K delta (PI3Kd), less than 5.00.
On to `C[C@H]1COCCN1c1nc(-c2ccc(NC(=O)NC3CC3)cc2)nc(-c2cccnc2S(C)(=O)=O)n1` [Example 24, (S)-1-cyclopropyl-3-(4-(4-(3-methylmorpholino)-6-(2-(methylsulfonyl)pyridin-3-yl)-1,3,5-triazin-2-yl)phenyl)urea], for which the pIC50 in test [1] is greater than 7.00; at PI3K alpha (PI3Kα) it was less than 5.00; on PI3K gamma (PI3Kg) it was less than 5.00; at PI3K beta (PI3Kb) it was 5.00 to 6.00; in test [2], less than 5.00; in test [3] it was greater than 7.00. The pIC50 was greater than 7.00 at mTOR and 5.00 to 6.00 at PI3K delta (PI3Kd).
In the case of `C[C@H]1COCCN1c1nc(-c2ccc(NC(=O)Nc3ccncc3)cc2)nc(-c2ccccc2S(C)(=O)=O)n1` [Example 35, (S)-1-(4-(4-(3-methylmorpholino)-6-(2-(methylsulfonyl)phenyl)-1,3,5-triazin-2-yl)phenyl)-3-(pyridin-4-yl)urea], the pIC50 is greater than 7.00 in test [1]; less than 5.00 on PI3K alpha (PI3Kα); less than 5.00 at PI3K gamma (PI3Kg); less than 5.00 on PI3K beta (PI3Kb); less than 5.00 in test [2]; 6.00 to 7.00 on mTOR. For the same compound, the pIC50 at PI3K delta (PI3Kd) is less than 5.00.
With `CCC1COCCN1c1nc(-c2ccc(NC(=O)NC3CC3)cc2)nc(-c2ccccc2S(C)(=O)=O)n1` (centres unmarked) [Example 36, 1-cyclopropyl-3-(4-(4-(3-ethylmorpholino)-6-(2-(methylsulfonyl)phenyl)-1,3,5-triazin-2-yl)phenyl)urea], the negative logarithm of the IC50 (pIC50) in test [1] was greater than 7.00; on PI3K alpha (PI3Kα), less than 5.00; at PI3K gamma (PI3Kg), less than 5.00; at PI3K beta (PI3Kb), less than 5.00; in test [2], less than 5.00; at mTOR it was 6.00 to 7.00. In addition, the negative logarithm of the IC50 (pIC50) on PI3K delta (PI3Kd) was less than 5.00.
